Reference: US20230365602A1, “COMPOUND FOR USE IN THE TREATMENT OF PROTOZOAL DISEASES AND PROCESS FOR PRODUCTION OF SAID COMPOUND” (QUADREL S.R.L., priority 2020, published 2023)
“Also recorded” adds a separate entry of the source. Like-named read-outs stand apart in the source and are kept apart here.

Legend:
[1] = tested on: L. infantum (MHOM/MA/67/ITMAP-263) intracellular amastigotes; assay: Anti-parasitic activity against L. infantum intracellular amastigotes (infection with axenic amastigotes luciferase positive); type: cell-based; details: Table 1; for inhibition at 10 µM / IC50: Leishmania infantum; for inhibition at 10 µM: read-out: Single Dose Assay 10 μM Mean Inhibitory Activity (%) ± SD; for IC50: read-out: Dose Response Curves IC50 ± SD; for Selectivity Index CC50/IC50 or NOAEL/IC50: THP-1 toxicity / L. infantum IC50
[2] = Toxicity MTT assay in PMA-differentiated THP-1 cells; type: cell-based, human; details: human, PMA-differentiated THP-1 cells (macrophages); for CC50: THP-1 macrophages, Table 1, read-out: Toxicity CC50 ± SD or NOAEL; for IC50: Table 4b, read-out: Cytotoxicity THP-1 (IC50)
Text: (§1) The in vitro antiparasitic activity against L. infantum (MHOM/MA/67/ITMAP-263) and the toxicity against THP-1 macrophages is presented in Table 1.

[3] = tested on: PMA-differentiated THP-1 cells; assay: as above; type: cell-based, human; details: Table 2; read-out: Toxicity CC50 ± SD or NOAEL
Text: as §1

[4] = tested on: T. b. brucei L427 WT Blood-Stream Form; assay: Anti-parasitic activity against T. b. brucei blood-stream form (resazurin 72 h assay); type: cell-based; details: Table 2
[5] = target: T1, CYP1A2 (Homo sapiens, UniProt P05177); assay: Early toxicity: CYP1A2 inhibition; type: in vitro ADME; details: human, mean ± SD, Table 4a
T1 sequence (P05177 1-516): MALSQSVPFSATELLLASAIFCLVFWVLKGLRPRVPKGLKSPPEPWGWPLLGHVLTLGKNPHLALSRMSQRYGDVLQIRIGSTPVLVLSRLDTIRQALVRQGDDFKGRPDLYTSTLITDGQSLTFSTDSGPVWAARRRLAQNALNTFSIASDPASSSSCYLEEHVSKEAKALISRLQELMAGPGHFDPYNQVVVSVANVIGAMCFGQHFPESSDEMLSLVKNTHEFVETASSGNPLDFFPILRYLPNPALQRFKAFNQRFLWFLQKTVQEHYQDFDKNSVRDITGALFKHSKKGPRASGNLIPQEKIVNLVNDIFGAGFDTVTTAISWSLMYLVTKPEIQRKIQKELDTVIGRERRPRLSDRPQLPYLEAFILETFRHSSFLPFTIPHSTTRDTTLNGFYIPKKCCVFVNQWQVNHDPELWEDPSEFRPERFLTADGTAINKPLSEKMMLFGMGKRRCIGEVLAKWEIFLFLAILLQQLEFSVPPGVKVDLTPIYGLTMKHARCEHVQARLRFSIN

[6] = target: CYP2C9 (Homo sapiens, UniProt P11712); assay: Early toxicity: CYP2C9 inhibition; type: in vitro ADME; details: human, mean ± SD, Table 4a
Sequence of CYP2C9 (P11712 whole entry): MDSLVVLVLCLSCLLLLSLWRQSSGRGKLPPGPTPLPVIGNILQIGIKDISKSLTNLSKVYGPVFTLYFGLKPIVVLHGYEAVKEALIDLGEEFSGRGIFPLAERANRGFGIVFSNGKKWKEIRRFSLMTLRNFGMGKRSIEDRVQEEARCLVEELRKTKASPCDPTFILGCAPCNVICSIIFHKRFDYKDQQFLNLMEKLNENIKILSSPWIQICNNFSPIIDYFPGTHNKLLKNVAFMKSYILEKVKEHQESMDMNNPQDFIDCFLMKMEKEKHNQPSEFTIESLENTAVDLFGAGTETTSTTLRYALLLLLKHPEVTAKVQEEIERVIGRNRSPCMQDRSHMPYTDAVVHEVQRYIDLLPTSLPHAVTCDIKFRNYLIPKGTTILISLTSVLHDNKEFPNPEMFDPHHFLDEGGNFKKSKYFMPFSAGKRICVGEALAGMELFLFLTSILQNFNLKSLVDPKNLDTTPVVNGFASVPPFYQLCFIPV

[7] = target: CYP2C19 (Homo sapiens, UniProt P33261); assay: Early toxicity: CYP2C19 inhibition; type: in vitro ADME; details: Table 4a; for inhibition at 10 µM: human, mean ± SD
Sequence of CYP2C19 (P33261 whole entry): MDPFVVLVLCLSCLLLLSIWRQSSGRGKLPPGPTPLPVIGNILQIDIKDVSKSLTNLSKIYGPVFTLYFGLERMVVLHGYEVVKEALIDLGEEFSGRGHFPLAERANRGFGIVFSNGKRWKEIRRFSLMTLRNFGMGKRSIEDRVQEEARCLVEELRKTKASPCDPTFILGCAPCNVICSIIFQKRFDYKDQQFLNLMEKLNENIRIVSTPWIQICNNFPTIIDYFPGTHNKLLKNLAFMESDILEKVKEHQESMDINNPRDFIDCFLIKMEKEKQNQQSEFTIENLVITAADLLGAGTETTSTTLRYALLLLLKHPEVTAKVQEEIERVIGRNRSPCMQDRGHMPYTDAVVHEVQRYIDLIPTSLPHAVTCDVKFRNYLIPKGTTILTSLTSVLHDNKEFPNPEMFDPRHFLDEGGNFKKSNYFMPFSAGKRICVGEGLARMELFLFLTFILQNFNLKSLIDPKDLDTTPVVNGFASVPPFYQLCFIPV

[8] = target: CYP2D6 (Homo sapiens, UniProt P10635); assay: Early toxicity: CYP2D6 inhibition; type: in vitro ADME; details: Table 4a; for inhibition at 10 µM: human, mean ± SD
Sequence of CYP2D6 (P10635 whole entry): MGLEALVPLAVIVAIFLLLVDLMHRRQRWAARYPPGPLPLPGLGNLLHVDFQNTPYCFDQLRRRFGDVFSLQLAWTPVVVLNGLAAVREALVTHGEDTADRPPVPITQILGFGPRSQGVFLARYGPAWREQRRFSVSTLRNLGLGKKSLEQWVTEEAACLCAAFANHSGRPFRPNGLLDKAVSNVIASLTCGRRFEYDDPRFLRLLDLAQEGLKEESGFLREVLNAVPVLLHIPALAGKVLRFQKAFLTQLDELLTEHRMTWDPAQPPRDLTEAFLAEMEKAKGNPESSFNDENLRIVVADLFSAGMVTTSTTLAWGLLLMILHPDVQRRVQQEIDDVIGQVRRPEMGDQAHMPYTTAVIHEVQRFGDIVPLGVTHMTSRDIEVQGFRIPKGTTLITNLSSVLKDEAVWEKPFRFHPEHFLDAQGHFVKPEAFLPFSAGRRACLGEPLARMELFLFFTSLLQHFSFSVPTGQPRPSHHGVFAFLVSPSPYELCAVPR

[9] = target: CYP3A4 (Homo sapiens, UniProt P08684); assay: Early toxicity: CYP3A4 inhibition; type: in vitro ADME; details: Table 4a; for inhibition at 10 µM: human, mean ± SD, read-out: % inhibition CYP3A4
Sequence of CYP3A4 (P08684 whole entry): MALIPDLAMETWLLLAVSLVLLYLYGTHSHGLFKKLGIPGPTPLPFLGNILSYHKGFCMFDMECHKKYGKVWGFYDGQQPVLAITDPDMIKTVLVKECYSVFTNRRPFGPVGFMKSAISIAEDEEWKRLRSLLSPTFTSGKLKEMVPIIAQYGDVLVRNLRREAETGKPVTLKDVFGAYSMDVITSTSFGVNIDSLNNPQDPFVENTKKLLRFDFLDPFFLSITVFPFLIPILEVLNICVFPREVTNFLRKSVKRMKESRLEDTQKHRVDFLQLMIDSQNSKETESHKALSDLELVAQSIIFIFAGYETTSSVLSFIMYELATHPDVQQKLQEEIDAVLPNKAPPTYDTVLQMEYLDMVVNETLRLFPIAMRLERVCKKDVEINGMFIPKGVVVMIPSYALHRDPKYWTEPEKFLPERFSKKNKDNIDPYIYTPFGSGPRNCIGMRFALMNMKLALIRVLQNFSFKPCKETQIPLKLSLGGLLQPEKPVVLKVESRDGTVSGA

[10] = tested on: A549; assay: Early toxicity: A549 cell growth; type: cell-based; details: 10 μM; 100% = not cytotoxic, 0% = cytostatic, −100% = cytotoxic
[11] = tested on: mitochondria; assay: Early toxicity: mitochondrial toxicity; type: cell-based; details: for % mitochondrial toxicity: 10 μM, 100% mitotoxic, 0% not mitotoxic
[12] = Snapshot pharmacokinetics in plasma after oral gavage; type: in vivo, mice; details: mouse, plasma, po, healthy BALB/c mice, 20 mg/kg gavage, Table 13
Experimental: Pharmacology of 5-cyclopentadecylpentyl (2-(trimethylammonio)ethyl) phosphate (19) in mice.
Blood samples were collected from the tail vein at 0, 0.5, 0.75, 1, 3, 24 and 72 hours into heparinized tubes. Moreover, biodistribution of the molecule, 72h after administration, was determined in several organs of the treated mice, namely brain, liver, spleen, kidney, heart and bone marrow. […] J Chromatogr B, 865: 55-62) by liquid chromatography mass spectrometry (LC-MS/MS).

[13] = target: hERG channel (Homo sapiens, UniProt Q12809); assay: Early toxicity: hERG inhibition; details: for Flag for Interference, hERG: Table 4b; for inhibition at 10 µM: human
Sequence of hERG channel (Q12809 whole entry): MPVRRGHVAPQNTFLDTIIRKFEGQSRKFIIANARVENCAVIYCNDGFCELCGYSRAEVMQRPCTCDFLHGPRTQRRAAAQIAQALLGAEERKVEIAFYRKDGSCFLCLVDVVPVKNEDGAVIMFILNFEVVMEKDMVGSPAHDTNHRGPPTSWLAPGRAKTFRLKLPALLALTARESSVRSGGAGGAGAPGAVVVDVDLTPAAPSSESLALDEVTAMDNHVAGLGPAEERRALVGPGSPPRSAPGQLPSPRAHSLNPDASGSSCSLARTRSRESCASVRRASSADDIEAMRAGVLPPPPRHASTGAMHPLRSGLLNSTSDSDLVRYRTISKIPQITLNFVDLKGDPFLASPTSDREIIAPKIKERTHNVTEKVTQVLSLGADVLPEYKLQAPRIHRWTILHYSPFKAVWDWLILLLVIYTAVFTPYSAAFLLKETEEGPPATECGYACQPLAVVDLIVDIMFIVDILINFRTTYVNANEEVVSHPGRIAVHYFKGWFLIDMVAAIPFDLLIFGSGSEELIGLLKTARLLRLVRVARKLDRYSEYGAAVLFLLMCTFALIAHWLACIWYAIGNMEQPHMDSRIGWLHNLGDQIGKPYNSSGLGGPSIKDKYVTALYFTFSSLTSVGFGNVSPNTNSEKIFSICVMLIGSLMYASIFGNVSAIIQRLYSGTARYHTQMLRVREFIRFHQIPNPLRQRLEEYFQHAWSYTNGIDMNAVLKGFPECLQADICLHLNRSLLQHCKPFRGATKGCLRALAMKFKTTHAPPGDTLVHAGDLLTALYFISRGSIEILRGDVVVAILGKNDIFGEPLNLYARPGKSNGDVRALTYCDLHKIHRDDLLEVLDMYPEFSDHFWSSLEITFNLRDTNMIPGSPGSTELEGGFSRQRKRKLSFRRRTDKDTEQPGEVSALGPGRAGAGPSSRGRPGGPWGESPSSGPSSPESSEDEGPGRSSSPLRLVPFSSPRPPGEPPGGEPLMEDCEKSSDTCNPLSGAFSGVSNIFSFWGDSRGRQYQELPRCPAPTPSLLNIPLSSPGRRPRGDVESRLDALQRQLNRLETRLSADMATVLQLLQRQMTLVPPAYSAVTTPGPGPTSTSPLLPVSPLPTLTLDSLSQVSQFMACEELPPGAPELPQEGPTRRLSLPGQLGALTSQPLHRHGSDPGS

[14] = tested on: T. b. brucei GVR35; assay: Stage II HAT mice model, live imaging; type: in vivo; details: 5 mg/kg/day IP

## C[N+](C)(C)CCOP(=O)([O-])OCCCCC1CCCCCCCCCCC1 [Compound 16, 4-cyclododecylbutyl (2-(trimethylammonio)ethyl) phosphate]
[1]
  inhibition at 10 µM: 87 ± 17%
  IC50: 0.86 ± 0.33 µM
  Selectivity Index CC50/IC50 or NOAEL/IC50: >116
[2]
  CC50: > 100 µM
[3]
  CC50: > 100 µM

## C[N+](C)(C)CCOP(=O)([O-])OCCCCCC1CCCCCCCCCCC1 [Compound 17, 5-cyclododecylpentyl (2-(trimethylammonio)ethyl) phosphate]
[1]
  inhibition at 10 µM: 96 ± 2%
  IC50: 0.6 ± 0.2 µM
  Selectivity Index CC50/IC50 or NOAEL/IC50: >166
[2]
  CC50: > 100 µM
  IC50: > 100 µM
[3]
  CC50: > 100 µM
[4]
  activity against T. b. brucei blood-stream form: unexpectedly high activity in the low micromolar range
[4]; Trypanosoma brucei, 10 μM, read-out: Single Dose Assay 10 μM Mean Inhibitory Activity (%) ± SD
  inhibition at 10 µM: 21 ± 15%
[5]
  inhibition at 10 µM: 18.9 ± 0.69%
[6]
  inhibition at 10 µM: 10.3 ± 6.3%
[7]; 10 μM
  CYP2C19 interaction / inhibition: interact; also recorded: significant inhibition
[7]
  inhibition at 10 µM: 35.9 ± 4.97%
[8]; 10 μM
  CYP2D6 interaction / inhibition: interact; also recorded: significant inhibition
[8]
  inhibition at 10 µM: 48.9 ± 2.97%
[9]
  CYP3A4 interaction: interact
  inhibition at 10 µM: 55.3 ± 4.28%
[10]
  % cell growth A549: 121.61 ± 8.94%
[11]
  % mitochondrial toxicity: 110.46 ± 13.08%
[11]; Table 4b
  mitochondrial toxicity: exhibit mitochondrial toxicity
[12]; read-out: AUC (0-∞)
  AUC(0-inf): 11300 ng·h/mL
[12]; read-out: AUC (0-∞) (μM h/mL)
  AUC(0-inf): 26.9 µM·h
[12]; read-out: Cmax
  Cmax: 4.88 µM
[12]; read-out: Cmax (μg/mL)
  Cmax: 2.05 µg/mL
[12]; read-out: tmax
  Tmax: 3 h
[12]; read-out: t½ (converted)
  half-life: 6.9 h
[13]
  Flag for Interference, hERG: (no)
  inhibition at 10 µM: 26.3 ± 12.9%

## C[N+](C)(C)CCOP(=O)([O-])OCCCC=C1CCCCCCCCCCC1 [Compound 11, 4-cyclododecylidenebutyl (2-(trimethylammonio)ethyl) phosphate]
[1]
  inhibition at 10 µM: 76 ± 22%
  IC50: 2.59 ± 0.94 µM
  Selectivity Index CC50/IC50 or NOAEL/IC50: >38.6
[2]
  CC50: > 100 µM
[3]
  CC50: > 100 µM

## N=C(N)c1ccc(OCCCCCOc2ccc(C(=N)N)cc2)cc1 [pentamidine, reference compound]
[14]
  infection in the brain: not able to clear infection in the brain

## C[N+](C)(C)CCOP(=O)([O-])OCCC1CCCCCCCCCCC1 [Compound 27, 2-cyclododecylethyl (2-(trimethylammonio)ethyl) phosphate]
[1]
  inhibition at 10 µM: 36 ± 5%
[2]
  CC50: > 100 µM
  IC50: > 100 µM
[5]
  inhibition at 10 µM: 22.2 ± 1.59%
[6]
  inhibition at 10 µM: 13.7 ± 6.52%
[7]
  inhibition at 10 µM: 11 ± 5.72%
[8]
  inhibition at 10 µM: 6.92 ± 4.21%
[9]
  inhibition at 10 µM: 24.8 ± 3.15%
[10]
  % cell growth A549: 126.46 ± 6.12%
[11]
  % mitochondrial toxicity: 113.87 ± 2.81%
[13]
  Flag for Interference, hERG: (no)
  inhibition at 10 µM: -4.11 ± 10.4%
